Source: patent publication US12575571B2, “1-amino-1-cyclopropanecarboxylic acid and methyl jasmonate mixtures and uses thereof” (Valent BioSciences LLC, priority 2022, dated 2026)

Columns and labels:
[1] = system: unripened apples, Ultima Gala variety; assay: Apple coloration in Ultima Gala variety (percent red pixel area after foliar spray); format: in vivo; conditions: 34 hours post spray; for Fold Change From control: vs 0.05% Regulaid control
Description: (§1) To determine if the mixture provided unexpected results, the observed combined efficacy (“OCE”) was divided by the expected combined efficacy (“ECE”) wherein the ECE is calculated by the Abbott method: ECE=A+B−(AB/100), wherein ECE is the expected combined efficacy and in which A and B are the fold change from control given by the single active ingredients. If the ratio between the OCE of the mixture and the ECE of the mixture is greater than 1, then greater than expected interactions are present in the mixture. (Gisi, Synergistic Interaction of Fungicides in Mixtures, The American Phytopathological Society, 86:11, 1273-1279,1996).
(§2) 10 sets of unripened apples, Ultima Gala variety, harvested three weeks before the normal harvest date, were each foliar sprayed with either 1) 0.05% Regulaid® as a control, 2) 50 ppm methyl jasmonate, 3) 300 ppm methyl jasmonate, 4) 50 ppm ACC, 5) 300 ppm ACC or 6) a mixture of 50 ppm methyl jasmonate and 50 ppm ACC or 7) a mixture of 300 ppm methyl jasmonate and 300 ppm ACC. 34 hours post spray application percent red pixel area (shaded) was measured. Percent red pixel area is an indication of the coloration of the apple fruit.

[2] = system: unripened apples, Imperial Gala variety; assay: Apple coloration in Imperial Gala variety (percent red pixel area after foliar spray); format: in vivo; conditions: 34 hours post spray; for Fold Change From control: vs 0.05% Regulaid control
Description: as §2, with “Imperial” for “Ultima”
as §1

[3] = 50 ppm (each active) foliar spray
[4] = 300 ppm (each active) foliar spray

Question: How did the “Average % Red Pixel Area” value [1, 3] turn out when `CC/C=C\CC1C(=O)CCC1CC(=O)OC` (centres unmarked) [methyl jasmonate] was run?
Answer: Its value is 36.64%.

Question: What about the “Fold Change From control” value ([1]; 50 ppm (each active)) of the same molecule?
Answer: Its value is 2.30.

Question: What about the “Average % Red Pixel Area” value [1, 4] of the same molecule?
Answer: Its value is 46.37%.

Question: And the “Fold Change From control” value ([1]; 300 ppm (each active))?
Answer: The value was 3.17.

Question: And the “Average % Red Pixel Area” value [2, 3]?
Answer: The value was 63.31%.

Question: What about the “Fold Change From control” value ([2]; 50 ppm (each active)) of the same molecule?
Answer: Its value is 8.31.

Question: And the “Average % Red Pixel Area” value [2, 4]?
Answer: Its value is 47.60%.

Question: And the “Fold Change From control” value ([2]; 300 ppm (each active))?
Answer: The value was 6.00.
